Values after ≈ are worked out from the molar mass of the structure shown.
Experiments:
Assay type in all cases: cell-based
[1] = tested on: Faecalibacterium prausnitzii DSM 17677^T; assay: MIC, liquid medium microdilution method (CLSI), standard strain
[2] = tested on: Faecalibacterium prausnitzii EB-FPDK9 strain; assay: MIC, liquid medium microdilution method (CLSI), EB-FPDK9 strain; details: for Resistance or susceptibility of the EB-FPDK9 strain to the antimicrobial agent, in words: text summary of Table 4
[3] = tested on: Bacteroides thetiotaomicron ATCC 29741; assay: MIC, liquid medium microdilution method (CLSI), QC strain

Compound: O=C(N[C@H](CO)[C@H](O)c1ccc([N+](=O)[O-])cc1)C(Cl)Cl [CHL, chloramphenicol]
- Susceptibility class (S/I/R), DSM 17677^T ([1]; CHL breakpoints): R (≥32)
- Susceptibility class (S/I/R), EB-FPDK9 ([2]; CHL breakpoints): R (≥32)
- Resistance or susceptibility of the EB-FPDK9 strain to the antimicrobial agent, in words [2]: resistance

Compound: CCC[C@@H]1C[C@@H](C(=O)N[C@@H]([C@H]2O[C@H](SC)[C@H](O)[C@@H](O)[C@H]2O)[C@H](C)Cl)N(C)C1 [CLI, clindamycin]
- Susceptibility class (S/I/R), DSM 17677^T ([1]; CLI breakpoints): S (≤2)
- Susceptibility class (S/I/R), EB-FPDK9 ([2]; CLI breakpoints): S (≤2)

Compound: CO/N=C(\C(=O)N[C@@H]1C(=O)N2C(C(=O)O)=CCS[C@H]12)c1csc(N)n1 [CTZ, ceftizoxime]
- Susceptibility class (S/I/R), DSM 17677^T ([1]; CTZ breakpoints): I (64)
- Susceptibility class (S/I/R), EB-FPDK9 ([2]; CTZ breakpoints): R (≥128)
- Resistance or susceptibility of the EB-FPDK9 strain to the antimicrobial agent, in words [2]: resistance

Compound: C[C@@H](O)[C@H]1C(=O)N2C(C(=O)O)=C(S[C@@H]3CN[C@H](C(=O)N(C)C)C3)[C@H](C)[C@H]12 [MEM, meropenem]
- MIC ([3]; Bacteroides, ATCC29741, read-out: MIC, QC ATCC 29741): 0.5 µg/mL (≈ 1.3 µM)
- Susceptibility class (S/I/R), DSM 17677^T ([1]; MEM breakpoints): R (≥16)
- Susceptibility class (S/I/R), EB-FPDK9 ([2]; MEM breakpoints): R (≥16)
- Resistance or susceptibility of the EB-FPDK9 strain to the antimicrobial agent, in words [2]: resistance

Compound: Cc1ncc([N+](=O)[O-])n1CCO [MTZ, metronidazole]
- Susceptibility class (S/I/R), DSM 17677^T ([1]; MTZ breakpoints): S (≤8)
- Susceptibility class (S/I/R), EB-FPDK9 ([2]; MTZ breakpoints): S (≤8)
- Resistance or susceptibility of the EB-FPDK9 strain to the antimicrobial agent, in words [2]: susceptibility

Compound: COc1c(N2C[C@@H]3CCCN[C@@H]3C2)c(F)cc2c(=O)c(C(=O)O)cn(C3CC3)c12 [MXF, moxifloxacin]
- Susceptibility class (S/I/R), DSM 17677^T ([1]; MXF breakpoints): R (≥8)
- Susceptibility class (S/I/R), EB-FPDK9 ([2]; MXF breakpoints): R (≥8)

Compound: Piperacillin-tazobactam [PTZ]
- MIC, QC ATCC 29741 ([3]; Bacteroides thetiotaomicron ATCC 29741): 8/4
- MIC, test strain DSM 17677^T ([1]; F. prausnitzii DSM 17677^T): 256/4
- Susceptibility class (S/I/R), DSM 17677^T ([1]; PTZ breakpoints): R (≥128/4)
- MIC, test strain EB-FPDK9 ([2]; F. prausnitzii EB-FPDK9): 32/4
- Susceptibility class (S/I/R), EB-FPDK9 ([2]; PTZ breakpoints): S (≤32/4)
- Resistance or susceptibility of the EB-FPDK9 strain to the antimicrobial agent, in words [2]: susceptibility
